Results: article PMC7924852, “The Emericellipsins A–E from an Alkalophilic Fungus Emericellopsis alkalina Show Potent Activity against Multidrug-Resistant Pathogenic Fungi” (Journal of Fungi, 2021)
In brackets after ≈: the same amount, converted by molar mass.

How the values were obtained:
[1] = test system: B16 (mouse melanoma cell line); test: MTT cytotoxicity assay; type: cell-based; conditions: Mus musculus, 72 h, three experiments, each in triplicate
Method: (§1) Experiments for determining the cytotoxic activity of the compound in MTT assays were performed as previously described. The following tumor cell lines were used for this study: HCT-116 (colon cancer cell line), B16 (mouse melanoma cell line), K-562 (leukemia cell line), MDA-MB-231 (breast cancer line), and MCF-7 (breast cancer cell). Human postnatal fibroblasts were used as a normal cell line, and doxorubicin was used as a positive control. The cell lines were cultured in Dulbecco modified Eagle’s medium supplemented with 5% fetal calf serum, 2 mM Lglutamine, 100 U/mL penicillin, and […] streptomycin at 37 °C, 5% CO2 in a humidified atmosphere. Experiments were carried out on cells in the logarithmic phase of growth. The peptide was dissolved in DMSO as a 10 mM stock solution, followed by serial dilutions in water immediately before the experiment. Briefly, cells (5 × 10^3 in […] of culture medium) were plated in a 96-well plate and treated with 0.1% DMSO (blank control) or with […] of the peptide (0.10‒50 μM; each concentration in duplicate) for 72 h. After incubation with peptide, […] of aqueous MTT solution (3-(4,5-dimethylthiazol-2-yl)-2,5-diphenyltetrazolium bromide, 5 mg/mL) were added into each well for 2‒3 h. Formazan was dissolved in DMSO, and the absorbance at 570 nm was measured. The cytotoxicity at a given EmiA concentration was calculated as the percentage of absorbance in wells with peptide-treated cells compared to that of blank control cells (100%). The IC50 (50% growth inhibitory concentration) was defined as the concentration of EmiA that inhibited MTT conversion by 50%. All the experiments were repeated three times, each time in triplicate. EmiA was tested at a range of concentrations, 0.1‒10 μM.

[2] = test system: HCT-116 (colon cancer cell line); test: MTT cytotoxicity assay; type: cell-based; conditions: Homo sapiens, 72 h, three experiments, each in triplicate
Method: as §1

[3] = test system: HPF (human postnatal fibroblasts, normal cell line); test: MTT cytotoxicity assay; type: cell-based; conditions: Homo sapiens, Fibroblast; HPF normal fibroblasts; MTT, 72 h; three experiments, each in triplicate
Method: as §1

Candida albicans 1402 [4] = test: Broth microdilution MIC and MFC (CLSI); type: cell-based; conditions: Candida albicans 1402 clinical isolate; RPMI 1640 pH 7.0, 35 °C, 24 h; read-out: MIC
C. glabrata 1402 [5] = test: Broth microdilution MIC and MFC (CLSI); type: cell-based; conditions: Nakaseomyces glabratus, 1402, 24 h, pH 7
C. krusei 1447 [6] = test: Broth microdilution MIC and MFC (CLSI); type: cell-based; conditions: C. krusei 1447; symbol R defined in Table S1
C. tropicalis 156 [7] = test: Broth microdilution MIC and MFC (CLSI); type: cell-based; conditions: Candida tropicalis; C. tropicalis 156 clinical isolate; RPMI 1640 pH 7.0, 35 °C, 24 h; read-out: MIC
C. parapsilosis 571 [8] = test: Broth microdilution MIC and MFC (CLSI); type: cell-based; conditions: Lodderomyces parapsilosis, 571, 24 h, pH 7
[9] = test system: Cryptococcus neoformans 297; test: Broth microdilution MIC and MFC (CLSI); type: cell-based; conditions: Cryptococcus neoformans 297 clinical isolate; RPMI 1640 pH 7.0, 35 °C, 24 h; read-out: MIC
C. laurentii 325m = test: Broth microdilution MIC and MFC (CLSI); type: cell-based, Cr. laurentii; conditions: Papiliotrema laurentii; C. laurentii 325m clinical isolate; RPMI 1640 pH 7.0, 35 °C, 24 h; read-out: MIC
[10] = test system: clinical yeast isolates (Candida, Cryptococcus); test: Broth microdilution MIC/MFC, pathogenic multidrug yeast strains; type: cell-based; conditions: whole panel of Candida isolates
Aspergillus niger 1133m = test: Sensititre YeastOne antifungal susceptibility test; type: cell-based; conditions: Aspergillus niger, 1133M
A. fumigatus 390m = test: Sensititre YeastOne antifungal susceptibility test; type: cell-based; conditions: Aspergillus fumigatus, 390M
A. terreus 497 = test: Sensititre YeastOne antifungal susceptibility test; type: cell-based; conditions: Aspergillus terreus, 497
Candida albicans 1402 [11] = test: Sensititre YeastOne antifungal susceptibility test; type: cell-based; conditions: Candida albicans, 1402
C. glabrata 1402 [12] = test: Sensititre YeastOne antifungal susceptibility test; type: cell-based; conditions: Nakaseomyces glabratus, 1402
C. krusei 1447 [13] = test: Sensititre YeastOne antifungal susceptibility test; type: cell-based; conditions: Sensititre YeastOne; C. krusei 1447
C. tropicalis 156 [14] = test: Sensititre YeastOne antifungal susceptibility test; type: cell-based; conditions: Candida tropicalis; Sensititre YeastOne; C. tropicalis 156 clinical isolate; read-out: MIC
C. parapsilosis 571 [15] = test: Sensititre YeastOne antifungal susceptibility test; type: cell-based; conditions: Lodderomyces parapsilosis, 571
[16] = test system: Cryptococcus neoformans 297; test: Sensititre YeastOne antifungal susceptibility test; type: cell-based; conditions: Sensititre YeastOne; Cryptococcus neoformans 297 clinical isolate; read-out: MIC
Cr. laurentii 325m = test: Sensititre YeastOne antifungal susceptibility test; type: cell-based; conditions: Papiliotrema laurentii; Sensititre YeastOne; Cr. laurentii 325m clinical isolate; read-out: MIC

COc1cccc2c1C(=O)c1c(O)c3c(c(O)c1C2=O)C[C@@](O)(C(=O)CO)C[C@@H]3O[C@H]1C[C@H](N)[C@H](O)[C@H](C)O1 [Doxorubicin] showed an IC50 [1] of 600 ± 70 nM, an IC50 [2] of 200 ± 30 nM and an IC50 [3] of 200 ± 30 nM.

With OC(Cn1cncn1)(Cn1cncn1)c1ccc(F)cc1F [FZ, Fluconazole] the MIC (Candida albicans 1402 [4]) was 64 µg/mL (≈ 209 µM), the MIC (C. glabrata 1402 [5]) was 128 µg/mL (≈ 418 µM) and the “MIC (class symbol)” value (C. krusei 1447 [6]) was “R”. The MIC (C. tropicalis 156 [7]) was 64 µg/mL (≈ 209 µM), the MIC (C. parapsilosis 571 [8]) was 128 µg/mL (≈ 418 µM) and the MIC [9] was 16 µg/mL (≈ 52.2 µM). For the same compound, the MIC (C. laurentii 325m) was 32 µg/mL (≈ 104 µM), the “antifungal activity (in words)” value [10] was “little or no activity” and the MIC (Aspergillus niger 1133m) was > 256 µg/mL. The MIC (A. fumigatus 390m) was > 256 µg/mL, the MIC (A. terreus 497) was > 256 µg/mL and the MIC (Candida albicans 1402 [11]) was 256 µg/mL (≈ 836 µM). The MIC (C. glabrata 1402 [12]) was > 256 µg/mL, the “MIC (class symbol)” value (C. krusei 1447 [13]) was “R” and the MIC (C. tropicalis 156 [14]) was 64 µg/mL (≈ 209 µM). The MIC (C. parapsilosis 571 [15]) was 128 µg/mL (≈ 418 µM), the MIC [16] was 16 µg/mL (≈ 52.2 µM) and the MIC (Cr. laurentii 325m) was 32 µg/mL (≈ 104 µM).
